# Assays:
# Apis mellifera = conditions: acute, mortality
# Canidae = conditions: chronic; oral; Dog Other; gross pathology
# Colinus virginianus = conditions: oral; for LEC: diet
# Folsomia candida = conditions: chronic/long-term
# Neomysis kadiakensis = conditions: chronic/long-term; duration: 32 days; reproduction
# Aphidius rhopalosiphi = assay: LR50; higher = less toxic; conditions: not reported; mortality
# [1] = short-term, duration: 28 days, oral, diet, no effects
smiles,measurement,setting,value
O=C(O)c1cc(C(F)(F)F)nn1[C@@H]1O[C@H](CO)[C@@H](O)[C@H](O)[C@H]1O,NOAEL,Rattus norvegicus; [1],1160 mg/kg-day
O=C(O)c1cc(C(F)(F)F)[nH]n1 [5-(Trifluoromethyl)-1H-pyrazole-3-carboxylic acid],NOAEL,Rattus norvegicus; [1],1160 mg/kg-day
Cc1cc(C(F)(F)F)nn1CC(=O)N1CCC(c2nc(C3=NOC(c4c(F)cccc4F)C3)cs2)CC1 (configuration not stated) [Oxathiapiprolin],LD50,Apis mellifera; dermal,> 100 µg/piece
same,LD50,"Apis mellifera; oral, unspecified",> 40.3 µg/piece
same,NOAEL,Canidae,13.6 mg/kg-day
same,LEL,Colinus virginianus; acute,> 4250 mg/kg-day
same,LEC,Colinus virginianus; chronic,107 mg/kg-day
same,LEC,Colinus virginianus; short-term,> 1280 mg/kg-day
same,LC50,"Cyprinodon variegatus; acute, duration: 96 hours, mortality",> 0.65 µg/mL
same,NOEC,"Cyprinodon variegatus; chronic/long-term, duration: 35 days, growth",0.34 mg/L
same,NOEC,Folsomia candida,12.5 mg/kg
same,NOEC,Neomysis kadiakensis,0.058 mg/L
same,LD50,"Rattus norvegicus; acute, oral, mortality",> 5000 mg/kg
same,NOAEL,"Rattus norvegicus; reproduction developmental, other",86.4 mg/kg-day
same,LC50,Tagia sp.; acute,> 500 mg/kg
same,NOEC,Tagia sp.; chronic/long-term,15.4 mg/kg
same,LR50,Aphidius rhopalosiphi,116 g/ha

# Reference: EPA's ToxValDB 9.5 (doi:10.2903/j.efsa.2016.4504)
